Data taken from article PMC6891286, “Towards the Development of an In vivo Chemical Probe for Cyclin G Associated Kinase (GAK)” (Molecules, 2019).
Read-outs that look alike come from different tables or passages of the source.

Experiments:
GAK [1] = molecular target: T1, GAK (Homo sapiens, UniProt O14976); experiment: TR-FRET ligand-binding displacement assay
T1 sequence (O14976 1-1311): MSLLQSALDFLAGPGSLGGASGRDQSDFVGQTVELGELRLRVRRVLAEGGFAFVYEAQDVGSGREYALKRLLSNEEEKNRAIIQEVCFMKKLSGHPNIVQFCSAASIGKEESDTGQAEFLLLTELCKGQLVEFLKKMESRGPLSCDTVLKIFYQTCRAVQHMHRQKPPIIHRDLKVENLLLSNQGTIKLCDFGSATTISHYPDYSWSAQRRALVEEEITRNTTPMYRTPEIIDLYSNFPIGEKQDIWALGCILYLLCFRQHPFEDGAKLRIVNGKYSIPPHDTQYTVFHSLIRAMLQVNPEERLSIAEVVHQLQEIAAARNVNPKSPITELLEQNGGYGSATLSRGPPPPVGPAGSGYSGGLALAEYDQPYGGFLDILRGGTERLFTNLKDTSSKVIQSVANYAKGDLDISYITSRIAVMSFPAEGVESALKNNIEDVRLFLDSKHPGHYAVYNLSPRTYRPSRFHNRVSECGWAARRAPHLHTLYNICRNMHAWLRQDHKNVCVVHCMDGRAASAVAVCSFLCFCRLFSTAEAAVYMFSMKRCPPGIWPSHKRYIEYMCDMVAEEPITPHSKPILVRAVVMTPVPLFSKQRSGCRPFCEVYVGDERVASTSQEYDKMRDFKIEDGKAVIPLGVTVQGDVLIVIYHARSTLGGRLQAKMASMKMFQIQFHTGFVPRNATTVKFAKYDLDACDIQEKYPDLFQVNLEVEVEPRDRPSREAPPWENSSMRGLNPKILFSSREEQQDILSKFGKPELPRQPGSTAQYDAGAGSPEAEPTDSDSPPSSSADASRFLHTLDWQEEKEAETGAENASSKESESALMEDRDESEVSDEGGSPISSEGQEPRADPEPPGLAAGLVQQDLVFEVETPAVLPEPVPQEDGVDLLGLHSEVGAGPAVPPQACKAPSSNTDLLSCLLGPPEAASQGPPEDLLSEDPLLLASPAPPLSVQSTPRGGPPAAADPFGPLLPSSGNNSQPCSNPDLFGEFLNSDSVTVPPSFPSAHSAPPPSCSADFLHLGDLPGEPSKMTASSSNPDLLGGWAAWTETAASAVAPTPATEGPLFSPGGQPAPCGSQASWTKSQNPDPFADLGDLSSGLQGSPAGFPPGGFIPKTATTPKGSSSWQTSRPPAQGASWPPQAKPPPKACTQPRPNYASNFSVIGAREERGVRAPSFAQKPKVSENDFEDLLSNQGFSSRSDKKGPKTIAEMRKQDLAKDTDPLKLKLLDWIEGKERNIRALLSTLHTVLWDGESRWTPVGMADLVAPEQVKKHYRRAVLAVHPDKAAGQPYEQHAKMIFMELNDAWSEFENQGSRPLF

[2] = mouse liver microsome metabolic stability; conditions: mouse liver microsomes; for T1/2 Ratio: normalization with respect to internal control (propranolol); for half-life: mouse, T1/2 (min), mouse liver microsomes with NADPH, mean average, n = 2
Method: SGC-GAK-1 (1) was incubated with MLMs in the presence or absence of added NADPH, and the compound was quantified at various time points over an hour.
The metabolic stability of the 4-anilinoquinolines (8–13) were evaluated in MLMs (Table 1). Half-lives for metabolic clearance were normalized to propranolol in each experimental run to control for variations in the MLM preparations.

AAK1 = AAK1 (Homo sapiens, UniProt Q2M2I8); experiment: NAK family TR-FRET binding displacement assay; conditions: NAK family FRET screening
Chain of AAK1 (Q2M2I8 whole entry): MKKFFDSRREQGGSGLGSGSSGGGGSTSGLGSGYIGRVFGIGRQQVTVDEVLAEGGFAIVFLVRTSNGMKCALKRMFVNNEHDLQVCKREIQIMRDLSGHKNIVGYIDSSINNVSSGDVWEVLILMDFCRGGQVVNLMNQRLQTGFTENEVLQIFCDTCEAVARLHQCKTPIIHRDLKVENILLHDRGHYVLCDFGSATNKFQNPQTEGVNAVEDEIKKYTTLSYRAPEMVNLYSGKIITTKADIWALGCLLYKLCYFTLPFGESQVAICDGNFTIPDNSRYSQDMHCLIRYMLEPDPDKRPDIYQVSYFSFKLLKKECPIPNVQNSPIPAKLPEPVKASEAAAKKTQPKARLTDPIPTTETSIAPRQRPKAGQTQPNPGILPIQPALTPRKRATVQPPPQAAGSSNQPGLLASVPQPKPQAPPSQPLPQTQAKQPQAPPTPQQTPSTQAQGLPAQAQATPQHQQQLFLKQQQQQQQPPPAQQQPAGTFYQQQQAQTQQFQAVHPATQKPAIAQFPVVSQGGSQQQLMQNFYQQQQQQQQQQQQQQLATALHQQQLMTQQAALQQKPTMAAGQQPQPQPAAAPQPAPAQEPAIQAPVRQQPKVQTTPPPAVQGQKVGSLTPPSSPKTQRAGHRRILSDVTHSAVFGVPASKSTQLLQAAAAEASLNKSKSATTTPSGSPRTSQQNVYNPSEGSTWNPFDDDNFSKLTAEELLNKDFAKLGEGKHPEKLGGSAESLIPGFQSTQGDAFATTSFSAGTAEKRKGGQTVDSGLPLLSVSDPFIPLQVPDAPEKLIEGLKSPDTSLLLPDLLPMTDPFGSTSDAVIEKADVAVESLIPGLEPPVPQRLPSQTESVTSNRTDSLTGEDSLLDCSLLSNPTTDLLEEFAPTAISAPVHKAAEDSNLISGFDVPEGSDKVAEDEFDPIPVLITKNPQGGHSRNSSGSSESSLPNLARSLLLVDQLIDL

BMP2K = BMP2K (Homo sapiens, UniProt Q9NSY1); experiment: NAK family TR-FRET binding displacement assay
Chain of BMP2K (Q9NSY1 whole entry): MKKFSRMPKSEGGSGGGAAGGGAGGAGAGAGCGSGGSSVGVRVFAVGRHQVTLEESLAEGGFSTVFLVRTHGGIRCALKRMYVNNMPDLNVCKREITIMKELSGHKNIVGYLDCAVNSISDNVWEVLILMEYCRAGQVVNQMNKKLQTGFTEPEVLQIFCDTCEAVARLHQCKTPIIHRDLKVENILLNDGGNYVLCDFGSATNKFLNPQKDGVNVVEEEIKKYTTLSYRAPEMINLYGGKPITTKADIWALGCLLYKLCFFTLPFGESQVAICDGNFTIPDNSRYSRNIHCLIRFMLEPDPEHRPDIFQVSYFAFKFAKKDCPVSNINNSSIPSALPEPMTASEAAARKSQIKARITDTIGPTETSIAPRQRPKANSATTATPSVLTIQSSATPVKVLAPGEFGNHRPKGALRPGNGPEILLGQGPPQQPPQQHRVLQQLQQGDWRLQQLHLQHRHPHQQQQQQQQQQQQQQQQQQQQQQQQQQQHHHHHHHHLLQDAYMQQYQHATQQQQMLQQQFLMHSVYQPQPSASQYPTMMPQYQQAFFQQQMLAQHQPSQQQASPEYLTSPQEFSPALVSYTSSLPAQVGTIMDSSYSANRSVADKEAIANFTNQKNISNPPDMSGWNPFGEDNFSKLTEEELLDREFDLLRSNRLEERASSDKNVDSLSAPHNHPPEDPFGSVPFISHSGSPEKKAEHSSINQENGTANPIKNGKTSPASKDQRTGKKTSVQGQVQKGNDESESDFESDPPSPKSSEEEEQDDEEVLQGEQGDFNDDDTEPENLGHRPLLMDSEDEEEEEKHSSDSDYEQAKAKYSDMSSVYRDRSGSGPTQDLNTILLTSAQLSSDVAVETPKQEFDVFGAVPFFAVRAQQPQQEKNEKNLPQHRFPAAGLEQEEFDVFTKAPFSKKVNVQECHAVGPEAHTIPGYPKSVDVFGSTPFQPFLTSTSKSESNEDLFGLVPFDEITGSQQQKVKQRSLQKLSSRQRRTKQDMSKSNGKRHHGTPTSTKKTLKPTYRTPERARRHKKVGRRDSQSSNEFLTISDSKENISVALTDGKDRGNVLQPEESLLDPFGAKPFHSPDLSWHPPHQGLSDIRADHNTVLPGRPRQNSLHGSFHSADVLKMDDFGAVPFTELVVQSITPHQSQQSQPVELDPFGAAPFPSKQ

STK16 = STK16 (Homo sapiens, UniProt O75716); experiment: NAK family TR-FRET binding displacement assay; conditions: NAK family FRET screening; read-out: Binding displacement assay STK16 Ki
Chain of STK16 (O75716 whole entry): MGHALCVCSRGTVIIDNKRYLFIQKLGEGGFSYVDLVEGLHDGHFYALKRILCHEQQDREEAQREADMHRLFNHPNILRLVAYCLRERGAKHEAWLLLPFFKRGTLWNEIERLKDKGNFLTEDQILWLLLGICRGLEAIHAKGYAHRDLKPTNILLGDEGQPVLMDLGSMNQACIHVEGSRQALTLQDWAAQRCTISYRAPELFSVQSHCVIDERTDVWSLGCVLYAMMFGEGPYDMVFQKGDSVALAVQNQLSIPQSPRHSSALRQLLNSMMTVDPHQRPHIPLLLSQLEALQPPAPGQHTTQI

GAK [3] = molecular target: T1, GAK; experiment: live cell NanoBRET target engagement assay; type: cell-based; conditions: for IC50: nanoBRET, mean average, n = 2; for IC50 values in cells: live cell NanoBRET assay
Kinetic Solubility = type: physicochemical; conditions: pH 7.4, aqueous buffer, kinetic from dmso stock, PBS pH7.4 (100 µM)
[4] = TR-FRET assay, read-out: Biochemical GAK Ki
[5] = NAK family FRET screening, read-out: Binding displacement assay GAK Ki

| Compound | Ki (GAK [1]; [4]) [µM] | T1/2 Ratio [2] | half-life [2] [min] | Ki (AAK1) [µM] | Ki (BMP2K) [µM] | Ki (STK16) [µM] | IC50 (GAK [3]) [µM] | IC50 values in cells (GAK [3]) | Ki (GAK [1]; [5]) [µM] | solubility kinetic (Kinetic Solubility; read-out: Kinetic Solubility µM) [µM] | solubility kinetic (Kinetic Solubility; read-out: Kinetic Solubility µg/mL) [µg/mL] | T1/2 ratios fold higher than 9 [2] [fold] |
| --- | --- | --- | --- | --- | --- | --- | --- | --- | --- | --- | --- | --- |
| Fc1c(F)c(F)c(Nc2ccnc3ccc(C(F)(F)F)cc23)c(F)c1F [Compound 12] | 0.88 | 7.0 | 45.6 | > 100 | > 100 | 19 | – | – | – | – | – | – |
| Brc1ccc2nccc(Nc3cccc4c3OCC4)c2c1 [Compound 18, 6-Bromo-N-(2,3-dihydrobenzofuran-7-yl)quinolin-4-amine] | 0.029 | 0.10 | 0.82 | 3.5 | 11 | > 100 | 2.5 | – | – | – | – | – |
| Brc1ccc2nccc(Nc3cccc4occc34)c2c1 [Compound 19, N-(Benzofuran-4-yl)-6-bromoquinolin-4-amine] | 0.0019 | 0.16 | 1.7 | 1.9 | 11 | > 100 | 0.18 | submicromolar | – | – | – | – |
| Brc1ccc2nccc(Nc3cccc4ccoc34)c2c1 [Compound 20, N-(Benzofuran-7-yl)-6-bromoquinolin-4-amine] | 0.0043 | 0.08 | 0.9 | 4.6 | 16 | > 100 | 0.57 | submicromolar | – | – | – | – |
| Brc1ccc2nccc(Nc3cccc4sccc34)c2c1 [Compound 26, N-(Benzo[b]thiophen-4-yl)-6-bromoquinolin-4-amine] | 0.023 | 0.50 | 4.1 | > 100 | > 100 | > 100 | 3.3 | – | – | – | – | – |
| Brc1ccc2nccc(Nc3cccc4nc[nH]c34)c2c1 [Compound 27, N-(1H-Benzo[d]imidazol-7-yl)-6-bromoquinolin-4-amine] | – | 1.0 | 8.1 | 1.3 | 2.3 | 26 | > 5 | – | 0.066 | – | – | – |
| Brc1ccc2nccc(Nc3cccc4nonc34)c2c1 [Compound 28, N-(6-Bromoquinolin-4-yl)benzo[c][1,2,5]oxadiazol-4-amine] | 0.041 | 0.15 | 1.2 | 4.6 | 13 | 11 | 2.5 | – | – | – | – | – |
| Cn1nnc2c(Nc3ccnc4ccc(Br)cc34)cccc21 [Compound 30, 6-Bromo-N-(1-methyl-1H-benzo[d][1,2,3]triazol-4-yl)quinolin-4-amine] | – | 0.09 | 0.73 | 8.7 | 20 | > 100 | > 5 | – | 2.8 | – | – | – |
| Cn1ncc2c(Nc3ccnc4ccc(Br)cc34)cccc21 [Compound 31, 6-Bromo-N-(1-methyl-1H-indazol-4-yl)quinolin-4-amine] | – | 0.10 | 0.8 | 13 | 16 | 28 | > 5 | – | 3.6 | – | – | – |
| O=C1NCc2ccc(Nc3ccnc4ccc(Br)cc34)cc21 [Compound 38, 6-[(6-Bromoquinolin-4-yl)amino]-2,3-dihydro-1H-isoindol-1-one] | 0.062 | 1.0 | 8.1 | 1.4 | 0.98 | 2.7 | > 5 | – | – | – | – | – |

Further lines, results first:

| Ki (GAK [1]; [4]) [µM] | T1/2 Ratio [2] | half-life [2] [min] | Ki (AAK1) [µM] | Ki (BMP2K) [µM] | Ki (STK16) [µM] | IC50 (GAK [3]) [µM] | IC50 values in cells (GAK [3]) | Ki (GAK [1]; [5]) [µM] | solubility kinetic (Kinetic Solubility; read-out: Kinetic Solubility µM) [µM] | solubility kinetic (Kinetic Solubility; read-out: Kinetic Solubility µg/mL) [µg/mL] | T1/2 ratios fold higher than 9 [2] [fold] | Compound |
| --- | --- | --- | --- | --- | --- | --- | --- | --- | --- | --- | --- | --- |
| 0.74 | 0.12 | 1 | 3.3 | 8.7 | > 100 | > 5 | – | – | – | – | – | COc1cccc(Nc2ccnc3ccc(Br)cc23)c1OC [Compound 15, 6-Bromo-N-(2,3-dimethoxyphenyl)quinolin-4-amine] |
| 0.46 | 0.24 | 2 | > 100 | > 100 | > 100 | > 5 | – | – | – | – | – | FC1(F)Oc2cccc(Nc3ccnc4ccc(Br)cc34)c2O1 [Compound 16, 6-Bromo-N-(2,2-difluorobenzo[d][1,3]dioxol-4-yl)quinolin-4-amine] |
| 0.0052 | 0.16 | 1.7 | > 100 | > 100 | > 100 | > 5 | – | – | – | – | – | Brc1ccc2nccc(Nc3cccc4c3CCO4)c2c1 [Compound 17, 6-Bromo-N-(2,3-dihydrobenzofuran-4-yl)quinolin-4-amine] |
| – | 2.2 | 14.8 | – | – | – | > 5 | – | – | 2 | 0.7 | – | Fc1cc2cn[nH]c2cc1Nc1ccnc2ccc(Br)cc12 [Compound 36, 6-Bromo-N-(5-fluoro-1H-indazol-6-yl)quinolin-4-amine] |
| 0.36 | >25 | > 200 | 1.9 | 22 | 21 | > 5 | – | – | – | – | ≥ 2 | O=c1[nH]c2ccc(Nc3ccnc4ccc(Br)cc34)cc2[nH]1 [Compound 39, 5-[(6-Bromoquinolin-4-yl)amino]-2,3-dihydro-1H-1,3-benzodiazol-2-one] |
| 0.68 | 6.9 | 55.9 | 2.4 | 4.9 | 8.8 | > 5 | – | – | – | – | ≥ 2 | O=c1[nH]c2ccc(Nc3ccnc4ccc(Br)cc34)cc2o1 [Compound 40, 6-[(6-Bromoquinolin-4-yl)amino]-2,3-dihydro-1,3-benzoxazol-2-one] |
| 0.11 | 3.4 | 27.8 | 37 | 79 | > 100 | > 5 | – | – | – | – | ≥ 2 | O=c1[nH]c2cc(Nc3ccnc4ccc(Br)cc34)ccc2o1 [Compound 41, 5-[(6-Bromoquinolin-4-yl)amino]-2,3-dihydro-1,3-benzoxazol-2-one] |
| 1.6 | 4.2 | 33.6 | 4.1 | 6.6 | 9.3 | > 5 | – | – | – | – | ≥ 2 | Cn1c(=O)[nH]c2cc(Nc3ccnc4ccc(Br)cc34)ccc21 [Compound 42, 5-[(6-Bromoquinolin-4-yl)amino]-1-methyl-2,3-dihydro-1H-1,3-benzodiazol-2-one] |
| 1.7 | 1.9 | 15.6 | 3.3 | 6.4 | 8 | > 5 | – | – | – | – | – | O=S1(=O)Cc2ccc(Nc3ccnc4ccc(Br)cc34)cc2C1 [Compound 43, 5-((6-Bromoquinolin-4-yl)amino)-1,3-dihydrobenzo[c]thiophene 2,2-dioxide] |
